2 compounds from patent US20190119284A1, “ErbB Inhibitors and Uses Thereof” (The Regents of the University of California, priority 2016, published 2019) can be followed below.

The structures appear in SMILES notation.

Format in all cases: biochemical
Conditions in all cases: for inhibition at 1 µM: compound at 1 μM

The target in one test is T1, ITK (Homo sapiens, UniProt Q08881).
T1 sequence (Q08881 1-620): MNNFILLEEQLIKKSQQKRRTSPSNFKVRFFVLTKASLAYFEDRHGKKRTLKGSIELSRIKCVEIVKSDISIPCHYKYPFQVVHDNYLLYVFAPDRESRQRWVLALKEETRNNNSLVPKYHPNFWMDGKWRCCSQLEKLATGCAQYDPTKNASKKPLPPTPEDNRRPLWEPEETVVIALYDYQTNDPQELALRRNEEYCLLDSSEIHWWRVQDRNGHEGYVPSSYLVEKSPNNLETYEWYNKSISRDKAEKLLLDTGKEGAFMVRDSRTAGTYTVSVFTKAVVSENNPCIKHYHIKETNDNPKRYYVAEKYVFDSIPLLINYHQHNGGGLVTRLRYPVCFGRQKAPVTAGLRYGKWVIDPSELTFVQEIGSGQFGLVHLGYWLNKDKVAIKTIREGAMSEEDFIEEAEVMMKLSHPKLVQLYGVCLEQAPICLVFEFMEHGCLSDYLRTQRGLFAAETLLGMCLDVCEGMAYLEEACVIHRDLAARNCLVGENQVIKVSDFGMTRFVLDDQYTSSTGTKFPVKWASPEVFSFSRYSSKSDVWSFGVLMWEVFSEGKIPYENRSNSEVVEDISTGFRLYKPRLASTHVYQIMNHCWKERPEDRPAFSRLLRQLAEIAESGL
The test is described as follows: Nanosyn in vitro kinase profiling: ITK. As for the experimental part:
(§1) This was confirmed by in vitro profiling against a panel of kinases, with compound 2 only showing potent inhibition of EGFR and Ab1 (Table 2).
(§2) In vitro Kinome Screen. In vitro profiling of compound 2 at 100 nM was conducted by Nanosyn.

A further test concerns the target CK1-EPSILON (Homo sapiens, UniProt P49674). In words: Nanosyn in vitro kinase profiling: CK1-EPSILON. As to the method:
as §1, §2

The target in another test is DYRK1A (Homo sapiens, UniProt Q13627). In words: Nanosyn in vitro kinase profiling: DYRK1A. As to the method: as §1, §2
For the next test, the target named is T2, PRKD2 (Homo sapiens, UniProt Q9BZL6).
T2 sequence (Q9BZL6 1-878): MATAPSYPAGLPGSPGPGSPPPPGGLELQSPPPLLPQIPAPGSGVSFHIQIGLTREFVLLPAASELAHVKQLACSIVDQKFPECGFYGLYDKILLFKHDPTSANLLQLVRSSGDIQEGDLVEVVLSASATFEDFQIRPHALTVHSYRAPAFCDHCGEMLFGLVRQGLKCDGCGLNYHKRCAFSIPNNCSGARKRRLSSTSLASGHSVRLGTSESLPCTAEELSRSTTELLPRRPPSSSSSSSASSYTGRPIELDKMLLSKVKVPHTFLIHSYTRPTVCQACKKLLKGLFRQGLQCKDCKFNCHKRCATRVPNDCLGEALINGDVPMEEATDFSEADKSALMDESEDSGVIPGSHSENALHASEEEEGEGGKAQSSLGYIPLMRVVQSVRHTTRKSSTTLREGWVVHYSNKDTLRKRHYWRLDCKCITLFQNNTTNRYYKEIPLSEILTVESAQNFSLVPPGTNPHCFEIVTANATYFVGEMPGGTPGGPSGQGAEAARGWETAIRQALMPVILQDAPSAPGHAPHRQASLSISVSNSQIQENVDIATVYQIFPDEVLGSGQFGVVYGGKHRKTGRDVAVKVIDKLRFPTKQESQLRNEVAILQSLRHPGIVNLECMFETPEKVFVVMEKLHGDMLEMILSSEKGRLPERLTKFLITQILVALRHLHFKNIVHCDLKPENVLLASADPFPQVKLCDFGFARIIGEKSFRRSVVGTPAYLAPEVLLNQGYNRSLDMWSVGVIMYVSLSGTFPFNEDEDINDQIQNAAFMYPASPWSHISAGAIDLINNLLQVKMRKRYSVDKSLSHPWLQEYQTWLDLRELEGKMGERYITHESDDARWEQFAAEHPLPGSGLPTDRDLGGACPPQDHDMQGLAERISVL
The test is described as follows: Nanosyn in vitro kinase profiling: PRKD2. As for the experimental part:
as §1, §2

The target of the next test is PDGFR-ALPHA (Homo sapiens, UniProt P16234). The test is described as follows: Nanosyn in vitro kinase profiling: PDGFR-ALPHA. As to the method:
as §1, §2

A further test concerns the target SYK (Homo sapiens, UniProt P43405). In words: Nanosyn in vitro kinase profiling: SYK. As to the method: as §1, §2
For the next test, the target named is JNK2 (Homo sapiens, UniProt P45984). The test is described as follows: Nanosyn in vitro kinase profiling: JNK2. As for the experimental part:
as §1, §2

The target in a further test is MAPKAPK-2 (Homo sapiens, UniProt P49137). In words: Nanosyn in vitro kinase profiling: MAPKAPK-2. As to the method:
as §1, §2

Chain of PDGFR-ALPHA (P16234 24-1089, species assumed): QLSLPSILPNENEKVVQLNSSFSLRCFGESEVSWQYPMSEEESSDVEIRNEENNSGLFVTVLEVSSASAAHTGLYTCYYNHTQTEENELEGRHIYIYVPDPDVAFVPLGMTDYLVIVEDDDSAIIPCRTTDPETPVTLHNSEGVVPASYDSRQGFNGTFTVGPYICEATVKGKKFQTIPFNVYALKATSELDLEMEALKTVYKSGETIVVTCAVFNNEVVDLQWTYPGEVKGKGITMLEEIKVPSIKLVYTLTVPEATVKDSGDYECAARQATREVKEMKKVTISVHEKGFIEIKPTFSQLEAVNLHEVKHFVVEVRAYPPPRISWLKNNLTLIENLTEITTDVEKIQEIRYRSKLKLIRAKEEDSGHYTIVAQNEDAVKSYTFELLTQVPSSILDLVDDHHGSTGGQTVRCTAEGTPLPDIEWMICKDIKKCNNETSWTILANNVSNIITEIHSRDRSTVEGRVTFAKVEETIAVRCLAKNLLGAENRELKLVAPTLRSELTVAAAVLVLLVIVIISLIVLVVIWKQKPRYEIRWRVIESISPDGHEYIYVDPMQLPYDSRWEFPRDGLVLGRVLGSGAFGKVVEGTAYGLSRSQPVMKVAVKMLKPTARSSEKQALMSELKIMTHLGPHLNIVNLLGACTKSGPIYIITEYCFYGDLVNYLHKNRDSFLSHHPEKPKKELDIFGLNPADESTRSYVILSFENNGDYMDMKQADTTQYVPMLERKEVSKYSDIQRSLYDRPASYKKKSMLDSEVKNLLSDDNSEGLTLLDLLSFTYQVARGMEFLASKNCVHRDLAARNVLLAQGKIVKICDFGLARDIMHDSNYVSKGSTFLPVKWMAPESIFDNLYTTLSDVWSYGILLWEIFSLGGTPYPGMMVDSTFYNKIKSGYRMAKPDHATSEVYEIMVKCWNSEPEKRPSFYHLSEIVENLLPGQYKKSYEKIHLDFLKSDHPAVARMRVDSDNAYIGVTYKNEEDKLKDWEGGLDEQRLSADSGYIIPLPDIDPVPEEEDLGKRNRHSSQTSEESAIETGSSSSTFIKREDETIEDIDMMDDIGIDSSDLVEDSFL
Chain of CK1-EPSILON (P49674 whole entry): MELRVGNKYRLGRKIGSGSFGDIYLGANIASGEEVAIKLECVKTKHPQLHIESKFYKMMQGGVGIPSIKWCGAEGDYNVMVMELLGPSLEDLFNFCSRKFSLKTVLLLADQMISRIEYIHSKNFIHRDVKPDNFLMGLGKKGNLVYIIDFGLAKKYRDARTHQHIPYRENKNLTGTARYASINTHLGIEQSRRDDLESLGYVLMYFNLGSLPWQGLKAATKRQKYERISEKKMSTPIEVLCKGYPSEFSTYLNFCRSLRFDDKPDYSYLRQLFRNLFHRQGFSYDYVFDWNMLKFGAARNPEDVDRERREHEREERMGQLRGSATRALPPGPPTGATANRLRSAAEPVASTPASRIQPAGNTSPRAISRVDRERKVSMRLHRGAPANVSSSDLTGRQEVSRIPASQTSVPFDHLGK
Chain of MAPKAPK-2 (P49137 whole entry, species assumed): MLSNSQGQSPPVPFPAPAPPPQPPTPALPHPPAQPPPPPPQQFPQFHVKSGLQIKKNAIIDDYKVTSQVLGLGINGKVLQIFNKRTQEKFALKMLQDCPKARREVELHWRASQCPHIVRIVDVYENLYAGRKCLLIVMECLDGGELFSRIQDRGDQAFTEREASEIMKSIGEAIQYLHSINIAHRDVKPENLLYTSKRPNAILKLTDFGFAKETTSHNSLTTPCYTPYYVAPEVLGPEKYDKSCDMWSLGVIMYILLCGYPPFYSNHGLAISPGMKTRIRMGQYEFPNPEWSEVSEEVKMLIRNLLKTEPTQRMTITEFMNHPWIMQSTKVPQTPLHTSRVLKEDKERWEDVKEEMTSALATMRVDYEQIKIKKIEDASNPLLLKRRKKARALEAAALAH
Chain of JNK2 (P45984 whole entry, species assumed): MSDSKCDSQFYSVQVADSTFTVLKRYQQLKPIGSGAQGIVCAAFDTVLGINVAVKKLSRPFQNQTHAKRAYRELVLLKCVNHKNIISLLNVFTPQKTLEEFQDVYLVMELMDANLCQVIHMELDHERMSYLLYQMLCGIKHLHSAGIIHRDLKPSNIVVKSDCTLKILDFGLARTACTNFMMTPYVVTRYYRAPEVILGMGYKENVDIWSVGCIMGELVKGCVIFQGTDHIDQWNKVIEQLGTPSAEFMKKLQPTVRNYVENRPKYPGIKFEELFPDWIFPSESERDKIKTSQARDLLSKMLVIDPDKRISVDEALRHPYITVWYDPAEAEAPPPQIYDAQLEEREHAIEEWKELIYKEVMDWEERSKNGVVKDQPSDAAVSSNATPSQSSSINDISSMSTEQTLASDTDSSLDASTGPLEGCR

The inhibition is the change of the read-out against control, counted positive when it falls. Consider `COc1ccc(-c2ccco2)cc1Nc1ncnc2[nH]nc(-c3ccco3)c12` [compound 2, 3-(furan-2-yl)-N-(5-(furan-2-yl)-2-methoxyphenyl)-1H-pyrazolo[3,4-d]pyrimidin-4-amine], for which the inhibition at 0.1 µM was 1.24% on ITK (compound at 100 nM); 3.45% against CK1-EPSILON (compound at 100 nM); 5% on DYRK1A (compound at 100 nM); 5.46% against PRKD2 (compound at 100 nM); 11.8% against PDGFR-ALPHA (compound at 100 nM); -2.12% against SYK (compound at 100 nM). Further, the inhibition at 0.1 µM at JNK2 (compound at 100 nM) was 1.07%; on MAPKAPK-2 (compound at 100 nM), 0.12%. The inhibition at 1 µM is 13.9% on ITK; 24.1% against CK1-EPSILON; 16.7% at DYRK1A; 26.6% against PRKD2; 52.5% against PDGFR-ALPHA; -6.41% against SYK. Also, the inhibition at 1 µM against JNK2 turned out to be 6.62%; against MAPKAPK-2 it was 0.575%.
For the compound `COc1ccc(-c2ccoc2)cc1Nc1ncnc2[nH]cc(-c3cc[nH]n3)c12` [compound 3, N-(5-(furan-3-yl)-2-methoxyphenyl)-5-(1H-pyrazol-3-yl)-7H-pyrrolo[2,3-d]pyrimidin-4-amine], the inhibition at 1 µM against ITK worked out at 24%; against CK1-EPSILON it was 11%; at DYRK1A, 41%; on PRKD2, 28%; against PDGFR-ALPHA, 66%; on SYK, 35%. Further, the values for the inhibition at 1 µM against JNK2 and against MAPKAPK-2 were 7% and -6%, respectively.
